Literature values in patent publication US20220040100A1, “Stable Acyclovir Sodium Parenteral Formulation” (RK Pharma Solutions LLC, priority 2020, published 2022).
Counter-ions that a name gives are not always drawn.

Settings: lyophilized powder reconstituted with Sterile Water for Injection, 50 mg/mL of acyclovir

pH of the reconstituted solution: approximately 11
Structure (SMILES): Nc1nc2c(ncn2COCCO)c(=O)[nH]1 [Acyclovir sodium, 2-amino-1,9-dihydro-9-[(2-hydroxyethoxy)methyl]-6H-purin-6-one monosodium salt]
